The values below come from doi:10.1101/2024.12.24.629646v1 (biorxiv, 2024).

Molecules are shown by their SMILES.

For the assay, the target named is mGlu5 WT (Homo sapiens, UniProt P41594). In words: cell-based. Also noted: species or system HEK293.
Chain of mGlu5 WT (P41594 whole entry): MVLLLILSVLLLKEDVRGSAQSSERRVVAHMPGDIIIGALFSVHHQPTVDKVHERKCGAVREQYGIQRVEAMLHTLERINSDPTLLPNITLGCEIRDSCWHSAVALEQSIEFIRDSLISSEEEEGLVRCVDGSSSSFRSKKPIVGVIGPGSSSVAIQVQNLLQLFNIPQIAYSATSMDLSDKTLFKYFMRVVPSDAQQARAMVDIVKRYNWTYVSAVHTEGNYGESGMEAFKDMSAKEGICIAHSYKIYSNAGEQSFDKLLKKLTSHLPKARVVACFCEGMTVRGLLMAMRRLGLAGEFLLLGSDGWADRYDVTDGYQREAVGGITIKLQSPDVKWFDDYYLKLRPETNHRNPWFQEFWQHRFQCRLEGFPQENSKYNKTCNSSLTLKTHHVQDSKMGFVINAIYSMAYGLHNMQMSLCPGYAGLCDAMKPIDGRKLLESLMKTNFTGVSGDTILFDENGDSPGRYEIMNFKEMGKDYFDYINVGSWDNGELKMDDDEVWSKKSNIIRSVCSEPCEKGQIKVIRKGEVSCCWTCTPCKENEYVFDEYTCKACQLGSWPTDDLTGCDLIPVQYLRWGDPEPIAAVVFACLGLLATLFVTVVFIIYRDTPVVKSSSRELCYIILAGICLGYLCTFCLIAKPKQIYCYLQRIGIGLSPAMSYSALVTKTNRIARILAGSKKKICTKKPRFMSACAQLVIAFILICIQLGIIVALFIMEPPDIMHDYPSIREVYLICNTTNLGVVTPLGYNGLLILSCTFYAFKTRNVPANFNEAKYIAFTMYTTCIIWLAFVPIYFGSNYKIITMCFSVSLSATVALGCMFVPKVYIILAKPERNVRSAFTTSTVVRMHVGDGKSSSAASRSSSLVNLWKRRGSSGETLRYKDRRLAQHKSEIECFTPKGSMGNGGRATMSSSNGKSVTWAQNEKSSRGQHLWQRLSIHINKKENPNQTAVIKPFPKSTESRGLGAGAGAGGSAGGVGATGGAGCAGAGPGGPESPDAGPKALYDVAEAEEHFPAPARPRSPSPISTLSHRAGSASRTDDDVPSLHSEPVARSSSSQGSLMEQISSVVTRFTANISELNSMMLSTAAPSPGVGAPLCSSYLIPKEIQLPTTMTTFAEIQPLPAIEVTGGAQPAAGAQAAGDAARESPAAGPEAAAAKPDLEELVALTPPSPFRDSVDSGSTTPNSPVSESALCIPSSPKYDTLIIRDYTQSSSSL

As a reminder, the EC50 is the concentration needed to bring the measured effect to its halfway point. A higher EC50 goes with lower potency in that assay. `C[C@@H](NC(=O)c1ccc(/N=N/c2cccc(F)c2)cn1)C(C)(C)O` [compound 2, (R,E)-5-((3-fluorophenyl)diazenyl)-N-(3-hydroxy-3-methylbutan-2-yl)picolinamide] showed an EC50 of 1170 nM.
As to `C[C@@H](NC(=O)c1ccc(C#Cc2cccc(F)c2)cn1)C(C)(C)O` [compound 1, VU0424465], the EC50 is 5.25 nM.
